The structures appear in SMILES notation. Values joined by “and” are separate entries in the source; they are usually repeats but may differ in a detail not shown here. Identical values can stand only once.

For this experiment, the target named is Mitogen-activated protein kinase kinase kinase kinase 1 (Homo sapiens, UniProt Q92918). Kind of experiment: HPK1-SLP76 TR-FRET ASSAY.
Chain of Mitogen-activated protein kinase kinase kinase kinase 1 (Q92918 whole entry): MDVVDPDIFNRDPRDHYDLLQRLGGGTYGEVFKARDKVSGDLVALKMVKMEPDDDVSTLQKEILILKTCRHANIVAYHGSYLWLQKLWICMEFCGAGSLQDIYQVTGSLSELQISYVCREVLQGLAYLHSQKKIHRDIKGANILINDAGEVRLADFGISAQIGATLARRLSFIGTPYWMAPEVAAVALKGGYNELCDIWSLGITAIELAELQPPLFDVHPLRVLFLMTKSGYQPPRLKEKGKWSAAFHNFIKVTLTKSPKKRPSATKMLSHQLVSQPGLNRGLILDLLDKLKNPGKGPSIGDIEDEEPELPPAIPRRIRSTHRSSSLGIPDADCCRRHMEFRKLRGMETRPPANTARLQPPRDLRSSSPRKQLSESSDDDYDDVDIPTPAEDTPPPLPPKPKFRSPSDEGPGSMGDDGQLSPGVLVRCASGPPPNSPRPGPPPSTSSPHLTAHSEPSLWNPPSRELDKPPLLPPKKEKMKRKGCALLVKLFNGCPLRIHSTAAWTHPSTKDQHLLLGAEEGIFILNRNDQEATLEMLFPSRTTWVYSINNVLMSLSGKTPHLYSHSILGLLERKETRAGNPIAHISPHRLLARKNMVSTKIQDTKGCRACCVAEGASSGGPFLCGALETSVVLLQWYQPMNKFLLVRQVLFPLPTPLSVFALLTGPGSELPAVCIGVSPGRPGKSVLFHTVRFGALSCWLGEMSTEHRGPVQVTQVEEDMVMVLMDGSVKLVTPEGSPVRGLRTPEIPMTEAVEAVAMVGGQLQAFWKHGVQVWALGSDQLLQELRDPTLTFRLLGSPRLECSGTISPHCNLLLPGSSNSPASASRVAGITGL

For the compound `COc1cc2c(cc1Nc1ncc3ccc(Oc4ccc5c(c4)CNCC5)cc3n1)CN(C)CC2` [WO2022098806, Compound 4-9], the IC50 (as a rule, the midpoint of a concentration-inhibition curve) was 2.19 nM.

For `COc1cc2c(cc1Nc1ncc3c(N)c(F)c(-c4cc5oc(=O)[nH]c5cc4C)cc3n1)CN(C)CC2` [WO2022098806, Compound 2-49], half-maximal inhibition (IC50) was put at 10 nM.

`CN1CCc2ccc(Nc3ncc4c(N)c(F)c(-c5cnc6c(c5Cl)NCCO6)cc4n3)cc2C1` [WO2022098806, Compound 2-124]: the IC50 is 0.05 nM and 0.03 nM.

As for `Cc1c(-c2cc3nc(Nc4ccc(CS(C)(=O)=O)cc4)ncc3c(N)c2F)cnc2c1NCCO2` [WO2022098806, Compound 2-114], the IC50 was 0.05 nM and 0.07 nM and 0.04 nM.

Compound `Cc1c(-c2cc3nc(Nc4ccc5c(c4)CN(C)[C@@H](C)C5)ncc3c(N)c2F)cnc2c1NCCO2` [WO2022098806, Compound 2-85] gave an IC50 of 0.03 nM.

In turn, `CC(=O)N[C@@H]1CCc2cc(Nc3ncc4c(N)c(F)c(-c5cnc6c(c5C)NCCO6)cc4n3)ccc21` [WO2022098806, Compound 2-10] had a 50% inhibitory concentration (IC50) of 0.12 nM.

The compound `COc1cc2c(cc1Nc1ncc3ccc(N4CC(C)(CO)OC4=O)cc3n1)CN(C)CC2` (centres undefined) [WO2022098806, Compound 3-7] registered an IC50 of 45 nM.

Regarding `CC(=O)N1CCC[C@@H]1c1ccc(Nc2ncc3c(N)c(F)c(-c4cnc5c(c4C)NCCO5)cc3n2)cc1` [WO2022098806, Compound 2-28], inhibition was half-maximal at 0.15 nM (IC50).

Regarding `Cc1c(-c2cc3nc(Nc4cnc5c(c4)CN(C)CC5)ncc3c(N)c2F)cnc2c1NCCO2` [WO2022098806, Compound 2-183], half-maximal inhibition (IC50) required 0.04 nM.

With `Cc1c(-c2cc3nc(Nc4ccc(NS(C)(=O)=O)cc4)ncc3c(N)c2F)cnc2c1NCCO2` [WO2022098806, Compound 2-16], half-maximal inhibition (IC50) was put at 0.09 nM.

Compound `COc1cc2c(cc1Nc1ncc3ccc(NCC4(C)CCOC4)cc3n1)CN(C)CC2` (centres undefined) [WO2022098806, Compound 3-75] registered an IC50 of 90 nM.

Turning to `COc1cc(S(C)(=O)=O)ccc1Nc1ncc2c(N)cc(N3C(=O)OC[C@H]3C)cc2n1` [WO2022098806, Compound 3-76], half-maximal inhibition (IC50) required 0.1 nM.

For the compound `COc1cc2c(cc1Nc1ncc3c(N)c(F)c(-c4cnc5c(c4C)NCCO5)cc3n1)[C@H](C)N(C)CC2` [WO2022098806, Compound 2-36], the IC50 is 0.1 nM.

`Cc1c(-c2cc3nc(Nc4ccc(CS(C)(=O)=O)nc4)ncc3c(N)c2F)cnc2c1NCCO2` [WO2022098806, Compound 2-84] had an IC50 of 0.02 nM.

The compound `Cc1c(-c2cc3nc(Nc4ccccc4C4CC4)ncc3c(N)c2F)cnc2c1NCCO2` [WO2022098806, Compound 2-26] showed an IC50 of 11 nM.

In the case of `Cc1c(-c2cc3nc(Nc4ccc5c(c4)CCS(=O)(=O)C5)ncc3c(N)c2F)cnc2c1NCCO2` [WO2022098806, Compound 2-138], the IC50 was determined as 0.07 nM.

For `CNC(=O)C1(c2ccc(Nc3ncc4c(N)c(F)c(-c5cnc6c(c5C)NCCO6)cc4n3)cc2)CCCC1` [WO2022098806, Compound 2-83], it took 0.04 nM to reach half-maximal inhibition (IC50).

The compound `Cc1c(-c2cc3nc(Nc4ccc(CC(=O)N(C)C)cc4)ncc3cc2F)cnc2c1NCCO2` [WO2022098806, Compound 1-132] registered an IC50 of 0.13 nM.

For the compound `Cc1c(-c2c(F)c(N)c3cnc(Nc4ccc5c(c4)CN(C)CC5)nc3c2Cl)cnc2c1NCCO2` [WO2022098806, Compound 2-180], the IC50 is 0.06 nM and 0.02 nM.

As for `Cc1c(-c2cc3nc(Nc4ccc5c(c4)CN(C)CC54CC4)ncc3c(N)c2F)cnc2c1NCCO2` [WO2022098806, Compound 2-151], the IC50 was 0.05 nM and 0.27 nM.

In turn, `COc1cc2c(cc1Nc1ncc3ccc(Nc4cccc(C#N)n4)cc3n1)CN(C)CC2` [WO2022098806, Compound 3-27] registered an IC50 of 23 nM.

Turning to `CNC(=O)C(C)(C)c1ccc(Nc2ncc3c(N)c(F)c(-c4cnc5c(c4C)NCCO5)cc3n2)cc1` [WO2022098806, Compound 2-187], the IC50 stood at 0.08 nM.

In turn, `CC(=O)N1CCC[C@H]1c1ccc(Nc2ncc3c(N)c(F)c(-c4cnc5c(c4C)NCCO5)cc3n2)cc1` [WO2022098806, Compound 2-29] showed an IC50 of 0.27 nM.

Compound `Cc1c(-c2cc3nc(Nc4cccc5c4CC(C)(C)N(C)C5)ncc3c(N)c2F)cnc2c1NCCO2` [WO2022098806, Compound 2-127] showed an IC50 of 100 nM.

In turn, `COc1cc2c(cc1Nc1ncc3ccc(-c4cncc(N5CCOCC5)c4)cc3n1)CNCC2` [WO2022098806, Compound 1-42] had an IC50 of 39 nM.

`COc1cc([C@@H](C)S(C)(=O)=O)ccc1Nc1ncc2c(N)c(F)c(-c3cnc4c(c3C)NCCO4)cc2n1` [WO2022098806, Compound 2-56] showed an IC50 of 0.1 nM.

`CNC(=O)c1ccc(Nc2ncc3c(N)cc(N4C(=O)OC[C@@H]4C)cc3n2)c(OC)c1` [WO2022098806, Compound 3-79]: the IC50 was 0.25 nM.

The compound `COc1cc2c(cc1Nc1ncc3c(N)c(F)c(-c4cnc5c(c4C)NCCO5)cc3n1)CN(C)CC2` [WO2022098806, Compound 2-2] gave an IC50 of 0.09 nM.

`CC(=O)N1CCc2ccc(Nc3ncc4c(N)c(F)c(-c5cnc6c(c5C)NCCO6)cc4n3)cc2C1` [WO2022098806, Compound 2-12] registered an IC50 of 865 nM.

Turning to `COc1cc([C@H](C)S(C)(=O)=O)ccc1Nc1ncc2c(N)c(F)c(-c3cnc4c(c3C)NCCO4)cc2n1` [WO2022098806, Compound 2-55], the 50% inhibitory concentration (IC50) turned out to be 1.62 nM.

In turn, `CN1CCc2ccc(Nc3ncc4c(N)c(F)c(-c5cncc6[nH]ccc56)cc4n3)cc2C1` [WO2022098806, Compound 2-139] registered an IC50 of 0.04 nM.

`COc1cc2c(cc1Nc1ncc3ccc(-c4cccc(CO)c4)cc3n1)CNCC2` [WO2022098806, Compound 1-60] displayed an IC50 of 20 nM.

Take `Cc1c(-c2cc3nc(Nc4ccc(CC(N)=O)cc4)ncc3cc2F)cnc2c1NCCO2` [WO2022098806, Compound 1-131]: 0.16 nM corresponded to half-maximal inhibition (IC50).

Compound `CNC(=O)[C@H]1CCc2cc(Nc3ncc4cc(F)c(-c5cnc6c(c5C)NCCO6)cc4n3)ccc21` [WO2022098806, Compound 1-119] registered a half-maximal inhibitory concentration (IC50) of 1.17 nM.

As for `CNC(=O)[C@@H](C)c1ccc(Nc2ncc3cc(F)c(-c4cnc5c(c4C)NCCO5)cc3n2)cc1` [WO2022098806, Compound 1-116], half-maximal inhibition (IC50) required 0.22 nM.

In turn, `COc1cc2c(cc1Nc1ncc3c(N)cc(N4C(=O)OC[C@@H]4C)cc3n1)CN(C)CC2` [WO2022098806, Compound 3-17] came in with an IC50 of 0.08 nM.

Compound `Cc1c(-c2cc3nc(Nc4ccc5c(c4)CNCCC5)ncc3c(N)c2F)cnc2c1NCCO2` [WO2022098806, Compound 2-120] came in with an IC50 of 0.01 nM.

`Cc1c(-c2cc3nc(Nc4ccc([C@H](C)S(C)(=O)=O)cc4)ncc3c(N)c2F)cnc2c1NCCO2` [WO2022098806, Compound 2-62] displayed an IC50 of 0.06 nM.

`COc1cc2c(cc1Nc1ncc3ccc(Nc4ccc5c(c4)C(=O)NCC5)cc3n1)CN(C)CC2` [WO2022098806, Compound 3-21] showed an IC50 of 30 nM.

`CC[C@@H]1COC(=O)N1c1cc(N)c2cnc(Nc3cc4c(cc3OC)CCN(C)C4)nc2c1` [WO2022098806, Compound 3-15] had a half-inhibitory concentration (IC50) of 3.24 nM.

`Cc1c(-c2cc3nc(Nc4cc5c(cc4F)CCN(C)C5)ncc3c(N)c2F)cnc2c1NCCO2` [WO2022098806, Compound 2-59] had an IC50 of 0.05 nM.

In turn, `CC(=O)Nc1ccc(Nc2ncc3c(N)c(F)c(-c4cnc5c(c4C)NCCO5)cc3n2)cc1` [WO2022098806, Compound 2-15] had a concentration for half-maximal inhibition (IC50) of 0.07 nM.

Compound `COc1cc2c(cc1Nc1ncc3ccc(-c4cccc(S(=O)(=O)N5CCOCC5)c4)cc3n1)CNCC2` [WO2022098806, Compound 1-77] showed a half-inhibitory concentration (IC50) of 25 nM.

The compound `Cc1ccc(F)cc1-c1cc2nc(Nc3ccc4c(c3)CN(C)CC4)ncc2c(N)c1F` [WO2022098806, Compound 2-174] displayed an IC50 of 11 nM.

On to `Cc1c(-c2cc3nc(Nc4cccc(S(C)(=O)=O)c4)ncc3c(N)c2F)cnc2c1NCCO2` [WO2022098806, Compound 2-14], for which the IC50 was found to be 0.08 nM.

With `Cc1c(-c2cc3nc(Nc4ccc5c(c4)CN(C)CC5)ncc3c(N)c2F)cnc2c1NCCO2` [WO2022098806, Compound 2-70], the IC50 came to 0.05 nM.

For the compound `Cc1c(-c2cc3nc(Nc4ccc5c(c4)CN(C(C)C)CC5)ncc3c(N)c2F)cnc2c1NCCO2` [WO2022098806, Compound 2-76], the IC50 is 0.03 nM.

The compound `Cc1ccc(F)cc1-c1cc2nc(Nc3ccc(CS(C)(=O)=O)cc3)ncc2c(N)c1F` [WO2022098806, Compound 2-172] registered an IC50 of 25 nM.

`Cc1c(-c2cc3nc(Nc4ccc5c(c4)CCS5(=O)=O)ncc3c(N)c2F)cnc2c1NCCO2` [WO2022098806, Compound 2-43]: the IC50 turned out to be 0.08 nM.

For `CNS(=O)(=O)c1cccc(Nc2ncc3c(N)c(F)c(-c4cnc5c(c4C)NCCO5)cc3n2)c1` [WO2022098806, Compound 2-34], the concentration for half-maximal inhibition (IC50) is 0.12 nM.

Consider `Cc1c(-c2cc3nc(Nc4ccc5c(c4)C(C)(C)OC5=O)ncc3c(N)c2F)cnc2c1NCCO2` [WO2022098806, Compound 2-41], for which the IC50 came out at 0.08 nM.

As for `Cc1c(-c2cc3nc(Nc4ccc5c(c4)CN(C)CC5)ncc3c(N)c2F)cnc2c1NCC(C)(C)O2` [WO2022098806, Compound 2-166], half-maximal inhibition (IC50) was put at 0.06 nM.

Turning to `Cc1c(-c2cc3nc(Nc4ccc([C@@H]5CCN(C)C5=O)cc4)ncc3cc2F)cnc2c1NCCO2` [WO2022098806, Compound 1-125], 0.06 nM corresponded to half-maximal inhibition (IC50).

For the compound `COc1cc2c(cc1Nc1ncc3ccc(N4CCCC(CN5CCCC5=O)C4)cc3n1)CN(C)CC2` (centres undefined) [WO2022098806, Compound 3-20], the IC50 came out at 771 nM.

The compound `COc1cc2c(cc1Nc1ncc3c(N)c(F)c(-c4cnc5c(c4C)NCCO5)cc3n1)C(C)N(C)C(C)C2` (centres undefined) [WO2022098806, Compound 2-48] came in with a half-inhibitory concentration (IC50) of 0.7 nM.

In turn, `COc1cc2c(cc1Nc1ncc3ccc(-c4cncc(NS(C)(=O)=O)c4)cc3n1)CNCC2` [WO2022098806, Compound 1-36] showed an IC50 of 183 nM.

On to `COc1cc2c(cc1Nc1ncc3ccc(OCc4ccc(N5CCNCC5)nc4)cc3n1)CN(C)CC2` [WO2022098806, Compound 4-1], for which the IC50 is 15 nM.

As for `CNCC1CN(c2ccc3cnc(Nc4cc5c(cc4OC)CCN(C)C5)nc3c2)C(=O)O1` (centres undefined) [WO2022098806, Compound 3-12], the midpoint of inhibition, the IC50, lay at 94 nM.

`COc1cc2c(cc1Nc1ncc3c(N)c(F)c(-c4cnc5ncsc5c4)cc3n1)CN(C)CC2` [WO2022098806, Compound 2-47] returned an IC50 of 25 nM.
